Results: patent publication US20120121591A1 (priority 2009, published 2012)
Read-outs that look alike come from different tables or passages of the source.

How the values were obtained:
Assay type in all cases: cell-based
hKv1.3 = hKv1.3 (Homo sapiens, UniProt P22001); test: cell-based; settings: Kv1.3 (IWQ) IC50 (nM, Avg)
[1] = tested on: IFN-g secretion from T cells in human whole blood
[2] = tested on: IL-2 secretion from T cells in human whole blood; settings: read-out: WB (IL-2) IC50 (nM, Avg)
[3] = read-out: WB (IFNg) IC50 (nM, Avg)

Chain of hKv1.3 (P22001 whole entry): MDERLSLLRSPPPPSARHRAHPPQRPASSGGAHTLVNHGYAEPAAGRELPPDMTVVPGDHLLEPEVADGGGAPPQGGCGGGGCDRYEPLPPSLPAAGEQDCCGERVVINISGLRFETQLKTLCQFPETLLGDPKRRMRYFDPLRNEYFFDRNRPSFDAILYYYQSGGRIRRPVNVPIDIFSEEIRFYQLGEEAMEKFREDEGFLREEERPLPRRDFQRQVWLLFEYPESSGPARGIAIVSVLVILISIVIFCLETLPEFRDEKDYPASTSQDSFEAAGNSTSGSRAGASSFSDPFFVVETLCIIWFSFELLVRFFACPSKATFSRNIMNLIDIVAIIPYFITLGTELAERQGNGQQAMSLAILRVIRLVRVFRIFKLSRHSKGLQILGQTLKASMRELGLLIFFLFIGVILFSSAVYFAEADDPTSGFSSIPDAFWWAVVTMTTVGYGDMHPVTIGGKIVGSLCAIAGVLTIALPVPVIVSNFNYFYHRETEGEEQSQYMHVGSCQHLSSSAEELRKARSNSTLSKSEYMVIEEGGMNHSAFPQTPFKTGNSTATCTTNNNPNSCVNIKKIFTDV

SMILES | IC50 (hKv1.3) [nM] | IC50 [1, 3] [nM] | IC50 [2] [nM] | IC50 ([1]; read-out: WB (IFNg) IC5- (nM, Avg)) [nM]
CC[C@H](C)[C@@H]1NC(=O)[C@@H](NC(=O)[C@H](CO)NC(=O)[C@@H](N)CCCNC(=N)N)CSSC[C@@H](C(=O)O)NC(=O)[C@H]([C@@H](C)O)NC(=O)CNC(=O)[C@@H]2CSSC[C@@H]3NC(=O)[C@H](CCC(N)=O)NC(=O)[C@H](Cc4ccccc4)NC(=O)[C@H](C)NC(=O)[C@H]([C@@H](C)O)NC(=O)[C@H](CSSC[C@H](NC(=O)[C@H](Cc4ccccc4)NC(=O)[C@H](CO)NC(=O)[C@H](CC(C)C)NC(=O)[C@H](CCCNC(=N)N)NC(=O)[C@H](Cc4ccc(O)cc4)NC(=O)[C@H](CCCCN)NC(=O)[C@H](CCSC)NC(=O)[C@H](CO)NC(=O)[C@H](Cc4c[nH]cn4)NC(=O)[C@H](CCCCN)NC3=O)C(=O)N[C@@H](Cc3cccc4ccccc34)C(=O)N[C@@H](CCCCN)C(=O)N[C@@H]([C@@H](C)O)C(=O)N2)NC(=O)[C@H](CCCNC(=N)N)NC(=O)[C@H](CO)NC(=O)[C@H](CCCCN)NC(=O)[C@@H]2CCCN2C(=O)[C@H]([C@@H](C)CC)NC(=O)[C@H]([C@@H](C)O)NC(=O)[C@H](CC(=O)O)NC1=O [[1-Nal29]ShK] | 3.3 | 8.08 | 4.72 | –
CC[C@H](C)[C@@H]1NC(=O)[C@@H](NC(=O)[C@H](CO)NC(=O)[C@@H](N)CCCNC(=N)N)CSSC[C@@H](C(N)=O)NC(=O)[C@H]([C@@H](C)O)NC(=O)CNC(=O)[C@@H]2CSSC[C@@H]3NC(=O)[C@H](CCCCN)NC(=O)[C@H](Cc4ccccc4)NC(=O)[C@H](C)NC(=O)[C@H]([C@@H](C)O)NC(=O)[C@H](CSSC[C@H](NC(=O)[C@H](Cc4ccccc4)NC(=O)[C@H](CO)NC(=O)[C@H](CC(C)C)NC(=O)[C@H](CCCNC(=N)N)NC(=O)[C@H](Cc4ccc(O)cc4)NC(=O)[C@H](CCCCN)NC(=O)[C@H](CCSC)NC(=O)[C@H](CO)NC(=O)[C@H](Cc4c[nH]cn4)NC(=O)[C@H](CCCCN)NC3=O)C(=O)N[C@@H](CCCCN)C(=O)N[C@@H](CCCNC(=N)N)C(=O)N[C@@H]([C@@H](C)O)C(=O)N2)NC(=O)[C@H](CCCNC(=N)N)NC(=O)[C@H](CO)NC(=O)[C@H](CCCCN)NC(=O)[C@@H]2CCCN2C(=O)[C@H]([C@@H](C)CC)NC(=O)[C@H]([C@@H](C)O)NC(=O)[C@H](CC(=O)O)NC1=O [[Lys16,29; Arg30]ShK-amide] | 0.131 | 0.281 | 0.339 | –
CC[C@H](C)[C@@H]1NC(=O)[C@@H](NC(=O)[C@H](CO)NC(=O)[C@@H](N)CCCNC(=N)N)CSSC[C@@H](C(N)=O)NC(=O)[C@H]([C@@H](C)O)NC(=O)CNC(=O)[C@@H]2CSSC[C@@H]3NC(=O)[C@H](CCCCN)NC(=O)[C@H](Cc4ccccc4)NC(=O)[C@H](C)NC(=O)[C@H]([C@@H](C)O)NC(=O)[C@H](CSSC[C@H](NC(=O)[C@H](Cc4ccccc4)NC(=O)[C@H](CO)NC(=O)[C@H](CC(C)C)NC(=O)[C@H](CCCNC(=N)N)NC(=O)[C@H](Cc4ccc(O)cc4)NC(=O)[C@H](CCCCN)NC(=O)[C@H](CCC(N)=O)NC(=O)[C@H](CO)NC(=O)[C@H](Cc4c[nH]cn4)NC(=O)[C@H](CCCCN)NC3=O)C(=O)N[C@@H](CCCNC(=N)N)C(=O)N[C@@H](CCCCN)C(=O)N[C@@H]([C@@H](C)O)C(=O)N2)NC(=O)[C@H](CCCNC(=N)N)NC(=O)[C@H](CO)NC(=O)[C@H](CCCCN)NC(=O)[C@@H]2CCCN2C(=O)[C@H]([C@@H](C)CC)NC(=O)[C@H]([C@@H](C)O)NC(=O)[C@H](CC(=O)O)NC1=O [[Lys16, Gln21]ShK-amide] | 0.161 | 0.812 | 0.42 | –
CC[C@H](C)[C@@H]1NC(=O)[C@@H](NC(=O)[C@H](CO)NC(=O)[C@@H](N)CCCNC(=N)N)CSSC[C@@H](C(N)=O)NC(=O)[C@H]([C@@H](C)O)NC(=O)CNC(=O)[C@@H]2CSSC[C@@H]3NC(=O)[C@H](CCCCN)NC(=O)[C@H](Cc4ccccc4)NC(=O)[C@H](C)NC(=O)[C@H]([C@@H](C)O)NC(=O)[C@H](CSSC[C@H](NC(=O)[C@H](Cc4ccccc4)NC(=O)[C@H](CO)NC(=O)[C@H](CC(C)C)NC(=O)[C@H](CCCNC(=N)N)NC(=O)[C@H](Cc4ccc(O)cc4)NC(=O)[C@H](CCCCN)NC(=O)[C@H](CC[S+](C)[O-])NC(=O)[C@H](CO)NC(=O)[C@H](Cc4c[nH]cn4)NC(=O)[C@H](CCCCN)NC3=O)C(=O)N[C@@H](CCCNC(=N)N)C(=O)N[C@@H](CCCCN)C(=O)N[C@@H]([C@@H](C)O)C(=O)N2)NC(=O)[C@H](CCCNC(=N)N)NC(=O)[C@H](CO)NC(=O)[C@H](CCCCN)NC(=O)[C@@H]2CCCN2C(=O)[C@H]([C@@H](C)CC)NC(=O)[C@H]([C@@H](C)O)NC(=O)[C@H](CC(=O)O)NC1=O (stereo partly drawn) [[Lys16, Met(O)21]ShK-amide] | 0.106 | 0.289 | 0.24 | –
CCCC[C@@H]1NC(=O)[C@H](CO)NC(=O)[C@H](Cc2c[nH]cn2)NC(=O)[C@H](CCCCN)NC(=O)[C@@H]2CSSC[C@@H]3NC(=O)[C@H]([C@@H](C)O)NC(=O)[C@H](CCCCN)NC(=O)[C@H](CCCNC(=N)N)NC(=O)[C@H](CSSC[C@H](NC(=O)[C@H](CCCNC(=N)N)NC(=O)[C@H](CCC(=O)O)NC(=O)[C@H](CCCCN)NC(=O)[C@@H]4CCCN4C(=O)[C@H]([C@@H](C)CC)NC(=O)[C@H]([C@@H](C)O)NC(=O)[C@H](CC(=O)O)NC(=O)[C@H]([C@@H](C)CC)NC(=O)[C@@H](NC(=O)[C@H](CO)NC(=O)[C@@H](N)CCCNC(=N)N)CSSC[C@@H](C(N)=O)NC(=O)[C@H]([C@@H](C)O)NC(=O)CNC3=O)C(=O)N[C@@H]([C@@H](C)O)C(=O)N[C@@H](C)C(=O)N[C@@H](Cc3ccccc3)C(=O)N[C@@H](CCCCN)C(=O)N2)NC(=O)[C@H](Cc2ccccc2)NC(=O)[C@H](CO)NC(=O)[C@H](CC(C)C)NC(=O)[C@H](CCCNC(=N)N)NC(=O)[C@H](Cc2ccc(O)cc2)NC(=O)[C@H](CCCCN)NC1=O [[Glu10,Lys16,Nle21]ShK-amide] | 0.127 | 1.26 | 0.776 | –
CC[C@H](C)[C@@H]1NC(=O)[C@H]([C@@H](C)O)NC(=O)[C@H](CC(=O)O)NC(=O)[C@H](CCC(=O)O)NC(=O)[C@@H](NC(=O)[C@H](CO)NC(=O)[C@@H](N)CCCNC(=N)N)CSSC[C@@H](C(N)=O)NC(=O)[C@H]([C@@H](C)O)NC(=O)CNC(=O)[C@@H]2CSSC[C@@H]3NC(=O)[C@H](CCCCN)NC(=O)[C@H](Cc4ccccc4)NC(=O)[C@H](C)NC(=O)[C@H]([C@@H](C)O)NC(=O)[C@H](CSSC[C@H](NC(=O)[C@H](Cc4ccccc4)NC(=O)[C@H](CO)NC(=O)[C@H](CC(C)C)NC(=O)[C@H](CCCNC(=N)N)NC(=O)[C@H](Cc4ccc(O)cc4)NC(=O)[C@H](CCCCN)NC(=O)[C@H](CCSC)NC(=O)[C@H](CO)NC(=O)[C@H](Cc4c[nH]cn4)NC(=O)[C@H](CCCCN)NC3=O)C(=O)N[C@@H](CCCCN)C(=O)N[C@@H](CCCNC(=N)N)C(=O)N[C@@H]([C@@H](C)O)C(=O)N2)NC(=O)[C@H](CCCNC(=N)N)NC(=O)[C@H](CO)NC(=O)[C@H](CCCCN)NC(=O)[C@@H]2CCCN2C1=O [[Glu4; Lys16,29;Arg30]ShK-amide] | 0.104 | 0.28 | 0.067 | –
CC[C@H](C)[C@@H]1NC(=O)[C@@H](NC(=O)[C@H](CO)NC(=O)[C@@H](N)CCCNC(=N)N)CSSC[C@@H](C(=O)O)NC(=O)[C@H]([C@@H](C)O)NC(=O)CNC(=O)[C@@H]2CSSC[C@@H]3NC(=O)[C@H](CCC(N)=O)NC(=O)[C@H](Cc4ccccc4)NC(=O)[C@H](C)NC(=O)[C@H]([C@@H](C)O)NC(=O)[C@H](CSSC[C@H](NC(=O)[C@H](Cc4ccccc4)NC(=O)[C@H](CO)NC(=O)[C@H](CC(C)C)NC(=O)[C@H](CCCNC(=N)N)NC(=O)[C@H](Cc4ccc(O)cc4)NC(=O)[C@H](CCCCN)NC(=O)[C@H](CCSC)NC(=O)[C@H](CO)NC(=O)[C@H](Cc4c[nH]cn4)NC(=O)[C@H](CCCCN)NC3=O)C(=O)N[C@@H](CCCNC(=N)N)C(=O)N[C@@H](CCCCN)C(=O)N[C@@H]([C@@H](C)O)C(=O)N2)NC(=O)[C@H](CCCNC(=N)N)NC(=O)[C@H](CO)NC(=O)[C@H](CCCCN)NC(=O)[C@@H]2CCCN2C(=O)[C@H]([C@@H](C)CC)NC(=O)[C@H](Cc2cccc3ccccc23)NC(=O)[C@H](CC(=O)O)NC1=O [[1-Nal6]ShK] | 0.15 | 0.962 | 0.86 | –
CC[C@H](C)[C@@H]1NC(=O)[C@@H](NC(=O)[C@H](CO)NC(=O)[C@@H](N)CCCNC(=N)N)CSSC[C@@H](C(=O)O)NC(=O)[C@H]([C@@H](C)O)NC(=O)CNC(=O)[C@@H]2CSSC[C@@H]3NC(=O)[C@H](CCC(N)=O)NC(=O)[C@H](Cc4ccccc4)NC(=O)[C@H](C)NC(=O)[C@H](CCC(=O)O)NC(=O)[C@H](CSSC[C@H](NC(=O)[C@H](Cc4ccccc4)NC(=O)[C@H](CO)NC(=O)[C@H](CC(C)C)NC(=O)[C@H](CCCNC(=N)N)NC(=O)[C@H](Cc4ccc(O)cc4)NC(=O)[C@H](CCCCN)NC(=O)[C@H](CCSC)NC(=O)[C@H](CO)NC(=O)[C@H](Cc4c[nH]cn4)NC(=O)[C@H](CCCCN)NC3=O)C(=O)N[C@@H](CCCNC(=N)N)C(=O)N[C@@H](CCCCN)C(=O)N[C@@H]([C@@H](C)O)C(=O)N2)NC(=O)[C@H](CCCNC(=N)N)NC(=O)[C@H](CO)NC(=O)[C@H](CCCCN)NC(=O)[C@@H]2CCCN2C(=O)[C@H]([C@@H](C)CC)NC(=O)[C@H]([C@@H](C)O)NC(=O)[C@H](CC(=O)O)NC1=O [[Glu13]ShK] | 0.157 | – | 0.785 | 1.1
